Reference: patent publication US6946480B2, “Glutaminyl based DPIV inhibitors” (priority 2002, dated 2005)

Tests used:
Format in all cases: biochemical
[1] = target: T1, Dipeptidyl Peptidase I (DP I, Cathepsin C) (Rattus norvegicus, UniProt P80067); assay: Cross reacting enzymes - dipeptidyl peptidase I; settings: concentration range 1*10^−5 M-1*10^−7 M
T1 construct: purchased Qiagen GmbH, Hilden, Germany
Experimental: (§1) Glutaminyl pyrrolidine or glutaminyl thiazolidine were tested for their cross reacting potency against dipeptidyl peptidase I, prolyl oligopeptidase and prolidase.
DP I or cathepsin C is a lysosomal cysteine protease which cleaves off dipeptides from the N-terminus of their substrates (Gutman, H. R. & Fruton, J. S., 1948, J. Biol: Chem., 174, 851-858) . It is classified as a cysteine protease.
The enzyme used was purchased from Qiagen (Qiagen GmbH, Hilden, Germany). In order to get a fully active enzyme, the enzyme was diluted 1000fold in MES buffer pH5,6 (40 mM MES, 4 mM DTT, 4 mM KCl, 2 mM EDTA, 0.015% Brij) and pre-incubated for 30 min at 30° C.
50 μl glutaminyl pyrrolidine or glutaminyl thiazolidine in a concentration range of 1*10^−5 M-1*10^−7 M were admixed with 110 μl buffer-enzyme-mixture. The assay mixture was pre-incubated at 30° C. for 15 min After pre-incubation, 100 μl histidylseryl-β-nitroaniline (2*10^−5 M) were added and measurement of yellow color development due to β-nitroaniline release was performed at 30° C. and […] for 10 min, using a plate reader (HTS7000 plus, Applied Biosystems, Weiterstadt, Germany).
(§2) The IC50-values were calculated using Graphit 4.0.15 (Erithacus Software, Ltd., UK).

[2] = target: T2, Prolidase from porcine kidney (Sus scrofa, UniProt A0A5G2QQV1); assay: Cross reacting enzymes - prolidase
T2 sequence (A0A5G2QQV1 1-463): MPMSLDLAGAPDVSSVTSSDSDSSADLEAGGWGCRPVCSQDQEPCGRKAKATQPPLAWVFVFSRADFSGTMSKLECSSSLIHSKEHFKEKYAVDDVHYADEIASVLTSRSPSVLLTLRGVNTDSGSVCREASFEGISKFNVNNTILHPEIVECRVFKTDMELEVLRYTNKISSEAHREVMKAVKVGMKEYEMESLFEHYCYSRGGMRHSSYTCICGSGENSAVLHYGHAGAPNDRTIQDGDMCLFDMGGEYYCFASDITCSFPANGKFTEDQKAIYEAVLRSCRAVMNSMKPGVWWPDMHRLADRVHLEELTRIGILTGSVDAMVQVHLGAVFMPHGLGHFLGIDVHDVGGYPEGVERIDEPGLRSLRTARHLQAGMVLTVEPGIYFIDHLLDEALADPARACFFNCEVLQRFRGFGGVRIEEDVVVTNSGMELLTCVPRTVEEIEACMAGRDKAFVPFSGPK
Experimental: as §1
Prolidase (EC 3.4.13.9) was first described by Bergmann & Fruton (Bergmann, M. & Fruton, J S, 1937, J. Biol. Chem. 189-202). Prolidase releases the N-terminal amino acid from Xaa-Pro dipeptides and has a pH optimum between 6 and 9.
Prolidase from porcine kidney (ICN Biomedicals, Eschwege, Germany). was solved (1 mg/ml) in assay buffer (20 mM NH4(CH3COO)2, 3 mM MnCl2, pH 7.6). In order to get a fully active enzyme the solution was incubated for 60 min at room temperature.
450 μl glutaminyl pyrrolidine or glutaminyl thiazolidine in an concentration range of 5*10^−3 M-5*10^−7 M were admixed with 500 μl buffer solution (20 mM NH4(CH3COO)2, pH 7.6) and 250 μl lle-Pro-OH (0.5 mM in the assay mixture). The assay mixture was pre-incubated at 30° C. for 5 min After pre-incubation, 75 μl Prolidase (1:10 diluted in assay buffer) were added and measurement was performed at 30° C. and λ=220 nm for 20 min using a UV/Vis photometer, UV1 (Thermo Spectronic, Cambridge, UK).
as §2

[3] = target: T3, recombinant human prolyl oligopeptidase (POP) (Homo sapiens, UniProt P48147); assay: Cross reacting enzymes - prolyl oligopeptidase; settings: concentration range 1*10^−4 M-5*10^−8 M
T3 construct: made in house; host or cells: E. coli
T3 sequence (P48147 1-710): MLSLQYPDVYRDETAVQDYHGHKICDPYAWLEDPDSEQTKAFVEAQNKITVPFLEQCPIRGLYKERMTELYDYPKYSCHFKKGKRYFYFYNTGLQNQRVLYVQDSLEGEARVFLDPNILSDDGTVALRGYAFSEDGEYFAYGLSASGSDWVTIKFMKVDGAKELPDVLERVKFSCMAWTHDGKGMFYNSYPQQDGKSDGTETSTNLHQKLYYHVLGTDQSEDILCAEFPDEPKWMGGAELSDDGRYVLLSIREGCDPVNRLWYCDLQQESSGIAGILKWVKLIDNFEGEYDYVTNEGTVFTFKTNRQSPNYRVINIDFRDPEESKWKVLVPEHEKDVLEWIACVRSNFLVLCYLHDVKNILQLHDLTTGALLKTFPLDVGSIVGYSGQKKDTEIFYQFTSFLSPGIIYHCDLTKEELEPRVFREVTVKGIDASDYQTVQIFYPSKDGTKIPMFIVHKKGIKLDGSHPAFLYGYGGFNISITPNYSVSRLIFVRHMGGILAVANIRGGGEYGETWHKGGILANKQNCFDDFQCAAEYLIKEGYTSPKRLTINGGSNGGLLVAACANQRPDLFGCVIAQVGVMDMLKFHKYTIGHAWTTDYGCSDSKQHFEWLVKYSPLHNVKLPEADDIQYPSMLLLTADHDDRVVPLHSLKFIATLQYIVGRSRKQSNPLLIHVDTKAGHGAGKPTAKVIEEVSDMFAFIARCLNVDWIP
Experimental: as §1
Substrates are peptides with a molecular weight up to 3000 Da.
The enzyme used was a recombinant human prolyl oligopeptidase. Recombinant expression was performed in E. coli under standard conditions as described elsewhere in the state of the art.
100 μl glutaminyl pyrrolidine or glutaminyl thiazolidine in an concentration range of 1*10^−4 M-5*10^−8 M were admixed with 100 μl μl buffer solution (40 mM HEPES, pH7.6, 0.015% Brij, 1 mM DTT) and 20 μl POP solution. The assay mixture was pre-incubated at 30° C. for 15 min After pre-incubation, 50 μl glycylprolylprolyl-4-nitroaniline solution (0.29 mM) were added and measurement of yellow color development due to 4-nitroaniline release was performed at 30° C. and λ=405 nm for 10 min using a plate reader (sunrise, Tecan, Crailsheim, Germany).
as §2

T1 sequence (P80067 25-134 limits assumed): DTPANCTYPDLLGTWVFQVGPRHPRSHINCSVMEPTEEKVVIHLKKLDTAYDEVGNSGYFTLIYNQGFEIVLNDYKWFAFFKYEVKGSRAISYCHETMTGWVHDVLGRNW
T1 sequence (P80067 230-393 limits assumed): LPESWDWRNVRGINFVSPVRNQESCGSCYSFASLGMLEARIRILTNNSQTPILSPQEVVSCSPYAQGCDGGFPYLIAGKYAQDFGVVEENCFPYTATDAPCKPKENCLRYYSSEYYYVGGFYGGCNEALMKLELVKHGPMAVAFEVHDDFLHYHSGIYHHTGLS
T1 sequence (P80067 394-462 limits assumed): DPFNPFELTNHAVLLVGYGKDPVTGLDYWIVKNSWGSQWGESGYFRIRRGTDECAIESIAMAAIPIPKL

SMILES: NC(=O)CC[C@H](N)C(=O)N1CCCC1 [glutaminyl pyrrolidine]
- inhibition of DP I enzyme activity [1]: no inhibition
- efficacy against prolidase compared to DPIV [2]: marked lower efficacy
- inhibition of POP activity [3]: no inhibition
